{"source": "patent US10369266B2", "about": "“Multipart fluid system and a system for citrate anticoagulation in an extracorporeal blood circuit” (Gambro Lundia AB, priority 2013, dated 2019)", "origin": "cited, not measured here", "test_system": "endothelial inflammation and dysfunction", "settings": "citrate 0.8 mM; hypoglycemic state; in vitro"}
{"smiles": "O=C(O)CC(O)(CC(=O)O)C(=O)O", "note": "[citrate]", "values": [{"measurement": "effect on endothelial inflammation and dysfunction", "result": "reduces endothelial inflammation and dysfunction"}]}
